# Biological target: T1, Glucocorticoid receptor (Homo sapiens, UniProt P04150)
# T1 sequence (P04150 whole entry): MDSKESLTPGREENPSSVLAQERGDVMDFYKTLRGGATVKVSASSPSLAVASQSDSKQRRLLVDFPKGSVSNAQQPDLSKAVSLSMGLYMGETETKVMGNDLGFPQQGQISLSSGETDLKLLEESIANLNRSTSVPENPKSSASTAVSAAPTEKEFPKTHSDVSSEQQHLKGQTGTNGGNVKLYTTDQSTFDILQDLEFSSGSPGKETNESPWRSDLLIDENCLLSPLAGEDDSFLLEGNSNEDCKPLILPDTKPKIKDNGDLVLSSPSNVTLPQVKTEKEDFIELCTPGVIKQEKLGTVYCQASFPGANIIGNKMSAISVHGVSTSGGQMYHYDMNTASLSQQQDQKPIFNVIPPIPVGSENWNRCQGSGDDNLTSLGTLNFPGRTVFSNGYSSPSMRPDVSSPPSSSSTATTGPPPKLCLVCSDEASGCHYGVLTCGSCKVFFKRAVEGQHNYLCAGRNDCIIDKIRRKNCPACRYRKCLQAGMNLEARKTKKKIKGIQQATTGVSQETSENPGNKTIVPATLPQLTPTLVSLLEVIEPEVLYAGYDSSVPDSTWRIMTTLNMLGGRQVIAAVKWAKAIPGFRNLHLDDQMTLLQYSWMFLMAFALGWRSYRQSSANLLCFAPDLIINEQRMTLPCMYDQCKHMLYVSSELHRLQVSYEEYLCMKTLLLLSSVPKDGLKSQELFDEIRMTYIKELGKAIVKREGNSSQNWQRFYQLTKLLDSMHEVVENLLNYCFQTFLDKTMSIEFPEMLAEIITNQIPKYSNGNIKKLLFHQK
smiles,measurement,value
C[C@]12C=CC(=O)C=C1CC[C@@H]1[C@@H]2[C@@H](O)C[C@@]2(C)[C@H]1C[C@H]1O[C@@H](C3CCCCC3)O[C@]12C(=O)CO [desisobutyryl-ciclesonide],Ki,310 pM

# — BindingDB's records for doi:10.1124/jpet.105.085217 (Imperial College, 2005)
